Results as given in patent US11149066B2, “Thrombospondin 1-binding peptide” (DAIICHI SANKYO COMPANY, LIMITED, priority 2016, dated 2021).
Positions of bridges follow the written chain, without caps; N, C: chain ends. Non-standard residues stand in square brackets, D forms with d. Residues, ends and D or L forms follow the SMILES beside them. Trp(6-Cl) = N[C@@H](Cc1c[nH]c2cc(Cl)ccc12)C(=O)O; Phe(3,4-Cl2) = N[C@@H](Cc1ccc(Cl)c(Cl)c1)C(=O)O; 2Nal = N[C@@H](Cc1ccc2ccccc2c1)C(=O)O

target: human TSP1 (Homo sapiens, UniProt P07996); assay: Cell adhesion inhibition assay (HUVEC adhesion to TSP1-coated plate); format: cell-based; conditions: HUVEC adhesion to human platelet thrombospondin-coated plate, 2.5 hours, CellTiter-Glo; read-out: Cell adhesion IC50
Protocol: As referred to herein, the TSP1 inhibitory activity refers to the activity to inhibit one or more effects of TSP1, including angiostatic effect. The TSP1 inhibitory activity is measured by a cell adhesion inhibition assay using human TSP1 and vascular endothelial cells as described hereinbelow in the Examples section. In this assay, when the 50% inhibitory concentration (IC5O) of a test substance is 200 nM or less, the test substance is determined to have TSP1 inhibitory activity.
(Test Example 1) Cell Adhesion Inhibition Assay
I. Materials and Reagents
96 well Non-treated White with clear bottom (Coster, 3632)
BrightMax adhesive sealing films (EXCEL Scientific, WT50)
Proteosave®SS 15 mL (Sumitomo Bakelite, MS-52150)
Thrombospondin human platelet (Calbiochem, 605225)
EGM-2 MV (Lonza, CC-3202): for HUVEC passaging
Collagen coated dish (IWAKI, 4020-010): for HUVEC passaging
Lipidure®-BL802 (NOF Corporation), 5% solution
Albumin solution (35%) fraction V from Bovine (Sigma, A7979)
CellTiter-Glo (Promega, G7572)
Thrombospondin 1 vial (25 μg) was dissolved in TBS (+2 mM CaCl2; the same shall apply hereunder) to make a 200 μg/mL solution, which was diluted with TBS to a concentration of 10 μg/mL in Proteosave® 15 mL tube. The 10 μg/mL solution was dispensed into a 96 well plate at a volume of 50 μL/well (no reservoir was used since the protein easily adsorbs on it), and the plate was left to stand at 4° C. overnight.
Lipidure® was diluted 10-fold with TBS to make a 0.5% solution. After a buffer was discarded from the plate that had been coated at the step of <Plate coat> as described above, the 0.5% solution was dispensed into all wells to be used at a volume of 100 μL/well, and the plate was left to stand at room temperature for 1 hour.
A 0.2 μM solution of each sample was prepared using a dilution buffer (DMEM+0.5% BSA). 2 μL of the 0.2 μM solution was diluted with 500 μL, of dilution buffer to prepare a diluted sample. As a vehicle control, DMSO was diluted in the same way as the samples.
A blocking solution was discarded from the plate that had been treated at the step of <Plate blocking> as described above, and the plate was washed three times with 150 μL/well of TBS. The washing solution used for the third washing was completely sucked out by an aspirator, and the diluted sample was dispensed into the plate at a volume of 50 μL/well. Then, the plate was left to stand at room temperature for 15 to 30 minutes.
To maintain HUVECs, EGM2-MV and a collagen coated dish were used (the cells were ceased to be used after 10th or 1 lth passage since the cell proliferation rate declined at this stage). The cells were dispersed with 0.05% Trypsin/EDTA, harvested in DMEM/0.5% BSA, and centrifuged at 1000 rpm for 3 minutes. After removal of supernatant, the cells were washed once with a DMEM buffer. The cells were resuspended in a DMEM buffer, counted for cell number, and diluted to 10000 cells/50 μL. The cell suspension was dispensed at a volume of 50 μL/well into the plate into which the sample had been dispensed, mixed gently, and incubated at 37° C. for 2.5 hours.
After cell adhesion was confirmed, the culture medium was completely removed by an aspirator, and 100 μL/well of DMEM/0.5% BSA was gently dispensed. Then, DMEM/0.5% BSA was completely removed by an aspirator, and 50 μL/well of DMEM/0.5% BSA was dispensed. After a white seal was applied to the bottom of the plate, 50 μL/well of CellTiter-Glo® was dispensed, and the solution was stirred for 2 minutes and left to stand at room temperature for 8 minutes. […] was detected using EnVision Xcite Multilabel Reader (produced by Perkin Elmer).
On the basis of the measured fluorescence values, the IC50 values (nM) of the different macrocyclic polypeptides for inhibition of cell adhesion were calculated.

Chain of human TSP1 (P07996 19-1170 limits assumed): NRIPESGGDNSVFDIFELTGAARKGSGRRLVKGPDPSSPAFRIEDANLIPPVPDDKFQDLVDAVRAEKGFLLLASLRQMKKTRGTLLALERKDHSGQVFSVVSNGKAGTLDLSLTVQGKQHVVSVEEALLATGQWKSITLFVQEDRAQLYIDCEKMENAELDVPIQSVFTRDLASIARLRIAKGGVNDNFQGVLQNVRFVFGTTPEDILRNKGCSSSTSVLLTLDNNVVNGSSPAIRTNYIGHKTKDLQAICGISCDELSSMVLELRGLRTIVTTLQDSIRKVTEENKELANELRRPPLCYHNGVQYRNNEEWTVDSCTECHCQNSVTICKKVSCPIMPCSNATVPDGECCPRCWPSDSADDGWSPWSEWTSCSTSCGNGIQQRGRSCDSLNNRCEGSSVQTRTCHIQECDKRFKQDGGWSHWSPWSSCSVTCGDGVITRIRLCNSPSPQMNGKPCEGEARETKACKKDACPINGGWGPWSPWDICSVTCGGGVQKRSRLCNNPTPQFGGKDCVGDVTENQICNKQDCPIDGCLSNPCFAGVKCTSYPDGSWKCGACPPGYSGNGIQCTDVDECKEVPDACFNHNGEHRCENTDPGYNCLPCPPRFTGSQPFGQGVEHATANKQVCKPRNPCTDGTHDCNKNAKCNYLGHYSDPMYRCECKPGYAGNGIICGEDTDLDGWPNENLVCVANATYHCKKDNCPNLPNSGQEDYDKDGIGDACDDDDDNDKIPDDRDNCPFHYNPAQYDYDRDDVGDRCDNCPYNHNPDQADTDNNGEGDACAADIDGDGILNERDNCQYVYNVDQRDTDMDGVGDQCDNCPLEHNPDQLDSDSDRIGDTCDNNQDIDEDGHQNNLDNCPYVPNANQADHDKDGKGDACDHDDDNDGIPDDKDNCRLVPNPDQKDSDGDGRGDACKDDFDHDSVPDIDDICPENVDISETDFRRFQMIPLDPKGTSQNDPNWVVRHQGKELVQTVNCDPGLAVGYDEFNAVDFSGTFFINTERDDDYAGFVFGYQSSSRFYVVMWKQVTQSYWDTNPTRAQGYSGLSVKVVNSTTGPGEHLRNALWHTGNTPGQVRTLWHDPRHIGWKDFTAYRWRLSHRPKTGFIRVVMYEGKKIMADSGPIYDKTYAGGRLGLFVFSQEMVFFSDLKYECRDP

Compared with `CC[C@H](C)[C@@H]1NC(=O)[C@H](Cc2ccccc2)NC(=O)CSC[C@@H](C(N)=O)NC(=O)[C@H](C(C)C)NC(=O)[C@H](Cc2c[nH]c3ccccc23)NC(=O)[C@H](C(C)C)NC(=O)[C@H](C(C)C)NC(=O)[C@H](Cc2c[nH]c3ccccc23)NC(=O)[C@H](CC(N)=O)NC(=O)[C@H](CCCNC(=N)N)NC(=O)CNC(=O)[C@H](CO)NC1=O` [Compound 1] ({CH2CO}-FISGRNWVVWVC-NH2; thioether N-12), `CC[C@H](C)[C@@H]1NC(=O)[C@H](Cc2ccccc2)NC(=O)CSC[C@@H](C(N)=O)NC(=O)[C@H](C(C)C)NC(=O)[C@H](Cc2c[nH]c3ccccc23)NC(=O)[C@H](CCCCN)NC(=O)[C@H](C(C)C)NC(=O)[C@H](Cc2c[nH]c3ccccc23)NC(=O)[C@H]([C@@H](C)O)NC(=O)[C@H](CCCCN)NC(=O)CNC(=O)[C@H](CO)NC1=O` [Compound 18] ({CH2CO}-FISGKTWVKWVC-NH2; thioether N-12) is 2.6-fold lower in IC50: 34 nM for the first, 13 nM for the second. The second is the more potent here.

`CC[C@H](C)[C@@H]1NC(=O)[C@H](Cc2ccccc2)NC(=O)CSC[C@@H](C(N)=O)NC(=O)[C@H](CCCNC(=N)N)NC(=O)[C@H](Cc2c[nH]c3ccccc23)NC(=O)[C@H](CCCNC(=N)N)NC(=O)[C@H](C(C)C)NC(=O)[C@H](Cc2c[nH]c3ccccc23)NC(=O)[C@H](CC(N)=O)NC(=O)[C@H](CCCNC(=N)N)NC(=O)CNC(=O)[C@H](CO)NC1=O` [Compound 5] and `CC(C)[C@@H]1NC(=O)[C@H](Cc2c[nH]c3ccccc23)NC(=O)[C@H](CCCNC(=N)N)NC(=O)[C@H](C(C)C)NC(=O)[C@H](Cc2c[nH]c3ccccc23)NC(=O)[C@H](CC(N)=O)NC(=O)[C@H](CCCNC(=N)N)NC(=O)CNC(=O)[C@H](CO)NC(=O)[C@H](CCCNC(=N)N)NC(=O)[C@H](Cc2ccccc2)NC(=O)CSC[C@@H](C(N)=O)NC1=O` [Compound 8] ({CH2CO}-FRSGRNWVRWVC-NH2; thioether N-12) are the same in IC50: 33.4 nM for the first, 33.4 nM for the second.

`CC[C@H](C)[C@@H]1NC(=O)[C@H](Cc2c[nH]c3ccccc23)NC(=O)CSC[C@@H](C(N)=O)NC(=O)[C@H](C(C)C)NC(=O)[C@H](Cc2c[nH]c3ccccc23)NC(=O)[C@H](CCCCN)NC(=O)[C@H](C(C)C)NC(=O)[C@H](Cc2c[nH]c3ccccc23)NC(=O)[C@H](CC(N)=O)NC(=O)[C@H](CCCNC(=N)N)NC(=O)CNC(=O)[C@H](CO)NC1=O` [Compound 9] ({CH2CO}-WISGRNWVKWVC-NH2; thioether N-12) and `CC[C@H](C)[C@@H]1NC(=O)[C@H](Cc2c[nH]c3ccccc23)NC(=O)CSC[C@@H](C(N)=O)NC(=O)[C@H](C(C)C)NC(=O)[C@H](Cc2c[nH]c3ccccc23)NC(=O)[C@H](CCCNC(=N)N)NC(=O)[C@H](C(C)C)NC(=O)[C@H](Cc2c[nH]c3ccccc23)NC(=O)[C@H](CC(N)=O)NC(=O)[C@H](CCCNC(=N)N)NC(=O)CNC(=O)[C@H](CO)NC1=O` [Compound 11] ({CH2CO}-WISGRNWVRWVC-NH2; thioether N-12) are within 1.5-fold of each other in IC50: 27.3 nM for the first, 26 nM for the second.

Going from `CC[C@H](C)[C@@H]1NC(=O)[C@H](Cc2c[nH]c3ccccc23)NC(=O)CSC[C@@H](C(N)=O)NC(=O)[C@H](C(C)C)NC(=O)[C@H](Cc2c[nH]c3ccccc23)NC(=O)[C@H](CCCCN)NC(=O)[C@H](C(C)C)NC(=O)[C@H](Cc2c[nH]c3ccccc23)NC(=O)[C@H](CC(N)=O)NC(=O)[C@H](CCCCN)NC(=O)CNC(=O)[C@H](CO)NC1=O` [Compound 16] ({CH2CO}-WISGKNWVKWVC-NH2; thioether N-12) to `CC[C@H](C)[C@@H]1NC(=O)[C@H](Cc2c[nH]c3ccccc23)NC(=O)CSC[C@@H](C(N)=O)NC(=O)[C@H](C(C)C)NC(=O)[C@H](Cc2c[nH]c3ccccc23)NC(=O)[C@H](CCCCN)NC(=O)[C@H](C(C)C)NC(=O)[C@H](Cc2c[nH]c3ccccc23)NC(=O)[C@H]([C@@H](C)O)NC(=O)[C@H](CCCCN)NC(=O)CNC(=O)[C@H](CO)NC1=O` [Compound 20] ({CH2CO}-WISGKTWVKWVC-NH2; thioether N-12), the IC50 falls from 21 nM to 13 nM (1.6-fold). The second is the more potent here.

`CC[C@H](C)[C@@H]1NC(=O)[C@H](Cc2ccccc2)NC(=O)CSC[C@@H](C(N)=O)NC(=O)[C@H](C(C)C)NC(=O)[C@H](Cc2c[nH]c3ccccc23)NC(=O)[C@H](CCCCN)NC(=O)[C@H](CCSC)NC(=O)[C@H](Cc2c[nH]c3ccccc23)NC(=O)[C@H](CC(N)=O)NC(=O)[C@H](CCCCN)NC(=O)CNC(=O)[C@H](CO)NC1=O` [Compound 19] ({CH2CO}-FISGKNWMKWVC-NH2; thioether N-12) and `CC[C@H](C)[C@@H]1NC(=O)[C@H](Cc2ccc3ccccc3c2)NC(=O)CSC[C@@H](C(N)=O)NC(=O)[C@H](C(C)C)NC(=O)[C@H](Cc2c[nH]c3ccccc23)NC(=O)[C@H](CCCCN)NC(=O)[C@H](C(C)C)NC(=O)[C@H](Cc2c[nH]c3ccccc23)NC(=O)[C@H](CC(N)=O)NC(=O)[C@H](CCCNC(=N)N)NC(=O)CNC(=O)[C@H](C)NC1=O` [Compound 30] ({CH2CO}-[2Nal]IAGRNWVKWVC-NH2; thioether N-12) are within 1.5-fold of each other in IC50: 14 nM for the first, 16.7 nM for the second.

`CC[C@H](C)[C@@H]1NC(=O)[C@H](Cc2c[nH]c3ccccc23)NC(=O)CSC[C@@H](C(N)=O)NC(=O)[C@H](C(C)C)NC(=O)[C@H](Cc2c[nH]c3ccccc23)NC(=O)[C@H](CCCCN)NC(=O)[C@H](C(C)C)NC(=O)[C@H](Cc2c[nH]c3ccccc23)NC(=O)[C@H]([C@@H](C)O)NC(=O)[C@H](CCCNC(=N)N)NC(=O)CNC(=O)[C@H](CO)NC1=O` [Compound 23] ({CH2CO}-WISGRTWVKWVC-NH2; thioether N-12) and `CC(C)[C@@H]1NC(=O)[C@H](Cc2c[nH]c3ccccc23)NC(=O)[C@H](CCCCN)NC(=O)[C@H](C(C)C)NC(=O)[C@H](Cc2c[nH]c3ccccc23)NC(=O)[C@H](CC(N)=O)NC(=O)[C@H](CCCNC(=N)N)NC(=O)CNC(=O)[C@H](CO)NC(=O)[C@H](Cc2c[nH]c3ccccc23)NC(=O)[C@H](Cc2ccc3ccccc3c2)NC(=O)CSC[C@@H](C(N)=O)NC1=O` [Compound 33] ({CH2CO}-[2Nal]WSGRNWVKWVC-NH2; thioether N-12) are within 1.5-fold of each other in IC50: 15.6 nM for the first, 20.7 nM for the second.

`CC(C)[C@@H]1NC(=O)[C@H](Cc2c[nH]c3ccccc23)NC(=O)[C@H](CCCCN)NC(=O)[C@H](C(C)C)NC(=O)[C@H](Cc2c[nH]c3ccccc23)NC(=O)[C@H](CC(N)=O)NC(=O)[C@H](CCCNC(=N)N)NC(=O)CNC(=O)[C@H](CO)NC(=O)[C@H](Cc2ccc3ccccc3c2)NC(=O)[C@H](Cc2ccc(Cl)c(Cl)c2)NC(=O)CSC[C@@H](C(N)=O)NC1=O` [Compound 34] ({CH2CO}-[Phe(3,4-Cl2)][2Nal]SGRNWVKWVC-NH2; thioether N-12) and `CC[C@H](C)[C@@H]1NC(=O)[C@H](Cc2ccc3ccccc3c2)NC(=O)CSC[C@@H](C(N)=O)NC(=O)[C@H](C(C)C)NC(=O)[C@H](Cc2c[nH]c3ccccc23)NC(=O)[C@H](CCCCN)NC(=O)[C@H](C(C)C)NC(=O)[C@H](Cc2c[nH]c3cc(Cl)ccc23)NC(=O)[C@H](CC(N)=O)NC(=O)[C@H](CCCNC(=N)N)NC(=O)CNC(=O)[C@H](CO)NC1=O` [Compound 35] ({CH2CO}-[2Nal]ISGRN[Trp(6-Cl)]VKWVC-NH2; thioether N-12) are within 1.5-fold of each other in IC50: 28.1 nM for the first, 26 nM for the second.

`CC[C@H](C)[C@@H]1NC(=O)[C@H](Cc2ccc3ccccc3c2)NC(=O)CSC[C@@H](C(N)=O)NC(=O)[C@H](C(C)C)NC(=O)[C@H](Cc2c[nH]c3cc(Cl)ccc23)NC(=O)[C@H](CCCCN)NC(=O)[C@H](C(C)C)NC(=O)[C@H](Cc2c[nH]c3ccccc23)NC(=O)[C@H](CC(N)=O)NC(=O)[C@H](CCCNC(=N)N)NC(=O)CNC(=O)[C@H](CO)NC1=O` [Compound 36] ({CH2CO}-[2Nal]ISGRNWVK[Trp(6-Cl)]VC-NH2; thioether N-12) was tested, and the IC50 was 17.2 nM.
